Key:
Cdk10/CycQ [1] = biological target: T1, Cdk10/CycQ (Homo sapiens, UniProt Q15131); experiment: Radiometric kinase assay, inhibition of Cdk10/CycQ (c-MYC substrate); type: biochemical; settings: 200 nM kinase, 1 mM ATP, 5 mM Mg2+, 50 µM c-MYC (17-167) as substrate
T1 construct: We expressed the human full-length Cdk10/CycQ complex in Sf9 insect cells; MBP (followed by TEV site) (N, cleaved yes); made in house; host or cells: Sf9 insect cells (baculovirus); c-MYC substrate from E. coli BL21 pLysS

Cdk10 [2] = test system: Cdk10; design: method as in PMID 29251720; settings: MOLT4 lysates; cited from earlier work
Cdk10/CycQ [3] = biological target: T1, Cdk10/CycQ; experiment: Radiometric kinase assay, inhibition of Cdk10/CycQ (c-MYC substrate); type: biochemical; settings: for Times more potent towards Cdk9 than Cdk10: ratio of IC50 values Cdk10 vs Cdk9; for Cross reactivity with Cdk10 (effect of inhibitor on Cdk10): at conditions that result in full inhibition of their primary target, supplementary figure S3
Description: Figure 3. […] (a) Chemical structures of the inhibitors tested against Cdk10/CycQ.
Kinase assays with recombinant proteins were performed in kinase assay buffer (50 mM Hepes pH7.6, 34 mM KCl, 7 mM MgCl2, 5 mM β-Glycerophosphate, 2.5 mM DTE). If not indicated otherwise, reactions contained 0.2 µM kinase, were started by the addition of ATP to 1 mM final concentration and incubated at 30°C in a shaking incubator.
For quantitative analysis, radioactive kinase assays were performed. Reactions were done in a total volume of 15 µl per sample. If not indicated otherwise, reactions contained 0.2 µM kinase, were started by addition of ATP to 1 mM containing 0.34 µCi γ[^32P] (Perkin Elmer) and incubated at 30°C in a shaking incubator. Reactions were stopped by adding EDTA to a final concentration of 50 mM. Samples were spotted onto Amersham Protran nitrocellulose membrane (GE Healthcare) filter sheets. Filters were washed three times for 5 min with PBS to remove free, non-reacted ATP. Samples were transferred to 4 ml liquid scintillation vials and immersed in 2 ml liquid scintillator (UltimaGold). Radioactivity was counted in a Beckman Liquid Scintillation Counter (Beckman-Coulter) for 1 min.
All compounds were solved at a stock concentration of 10 mM in DMSO and further pre-diluted in DMSO for dose–response measurement. For IC50 determination radioactive kinase assays were run as described above in presence of increasing concentration of inhibitor. For analysis, the data were normalized to the DMSO solvent control and the activity plotted against the inhibitor concentration. IC50 values were determined from duplicate measurements by sigmoidal curve fitting with a variable slope using GraphPadPrism, v.

Cdk9 = biological target: T2, Cdk9 (Homo sapiens, UniProt P50750); experiment: Radiometric kinase assay, inhibition of Cdk9 (c-MYC substrate); type: biochemical; settings: 200 nM kinase, 1 mM ATP, 5 mM Mg2+, 50 µM c-MYC (17-167) as substrate
T2 construct: His; made in house; host or cells: Cdk9 in Sf9 insect cells; CycT1 (1-272) in E. coli

Cdk10 [4] = test system: Cdk10; design: method as in PMID 29251720; settings: cited from earlier work

T1 sequence (Q15131 whole entry): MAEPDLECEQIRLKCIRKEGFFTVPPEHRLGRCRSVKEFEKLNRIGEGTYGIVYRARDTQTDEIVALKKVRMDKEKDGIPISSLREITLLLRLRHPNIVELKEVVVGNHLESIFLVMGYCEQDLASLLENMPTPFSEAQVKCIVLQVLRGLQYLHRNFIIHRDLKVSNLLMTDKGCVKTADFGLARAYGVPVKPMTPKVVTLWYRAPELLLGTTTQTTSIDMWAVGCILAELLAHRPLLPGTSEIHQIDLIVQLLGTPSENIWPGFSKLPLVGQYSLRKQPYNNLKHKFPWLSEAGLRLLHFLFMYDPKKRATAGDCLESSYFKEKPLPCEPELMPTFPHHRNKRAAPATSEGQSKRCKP
T1 sequence (Q8N1B3 whole entry partner): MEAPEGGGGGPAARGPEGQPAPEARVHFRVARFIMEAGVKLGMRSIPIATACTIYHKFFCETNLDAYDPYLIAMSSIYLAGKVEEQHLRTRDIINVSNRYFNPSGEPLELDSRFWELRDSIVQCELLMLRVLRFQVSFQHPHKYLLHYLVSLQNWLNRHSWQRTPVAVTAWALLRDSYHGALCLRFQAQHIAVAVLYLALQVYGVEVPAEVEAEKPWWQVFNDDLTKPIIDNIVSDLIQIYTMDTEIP
T2 sequence (P50750 whole entry, species assumed): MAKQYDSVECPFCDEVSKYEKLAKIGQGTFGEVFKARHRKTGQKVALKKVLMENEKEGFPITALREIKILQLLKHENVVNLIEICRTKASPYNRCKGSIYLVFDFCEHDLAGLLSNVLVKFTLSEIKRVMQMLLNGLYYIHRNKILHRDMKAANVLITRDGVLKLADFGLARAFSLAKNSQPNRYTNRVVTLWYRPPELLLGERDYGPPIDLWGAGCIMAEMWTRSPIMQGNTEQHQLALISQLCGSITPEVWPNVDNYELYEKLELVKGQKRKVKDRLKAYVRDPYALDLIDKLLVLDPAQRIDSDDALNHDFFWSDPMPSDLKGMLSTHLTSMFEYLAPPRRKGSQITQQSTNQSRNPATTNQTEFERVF
T2 sequence (O60563 1-272 partner limits assumed, species assumed): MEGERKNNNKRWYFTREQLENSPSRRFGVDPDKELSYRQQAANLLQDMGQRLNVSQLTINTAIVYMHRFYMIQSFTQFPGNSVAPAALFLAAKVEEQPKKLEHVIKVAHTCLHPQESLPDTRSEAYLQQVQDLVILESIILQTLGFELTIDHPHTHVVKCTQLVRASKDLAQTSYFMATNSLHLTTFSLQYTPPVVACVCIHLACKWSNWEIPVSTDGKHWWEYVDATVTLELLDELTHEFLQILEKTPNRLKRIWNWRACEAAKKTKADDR

Row | Times more potent towards Cdk9 than Cdk10 (Cdk10/CycQ [3]) | Cross reactivity with Cdk10 (effect of inhibitor on Cdk10) (Cdk10/CycQ [3]) | SMILES | also measured
1 | at least 5 times |  | COCC(C)NC1CCC(Nc2cc(-c3cccc(NCC4(C#N)CCOCC4)n3)c(Cl)cn2)CC1 (centres unmarked) [NVP-2] | IC50 (Cdk10/CycQ [1]): 1040 nM; Binding to Cdk10 (Cdk10 [2]): identified binding to Cdk10; IC50 (Cdk9): 58 nM
2 | at least 5 times |  | CC(C)(C)c1cnc(CSc2cnc(NC(=O)C3CCNCC3)s2)o1 [SNS-032] | Binding to Cdk10 (Cdk10 [2]): identified binding to Cdk10
3 |  | did not observe any considerable effect | CN(C)C/C=C/C(=O)Nc1ccc(C(=O)Nc2cccc(Nc3ncc(Cl)c(-c4c[nH]c5ccccc45)n3)c2)cc1 [THZ-1] | 
4 |  | did not observe any considerable effect | CN(C)C/C=C/C(=O)Nc1ccc(C(=O)N2CCC[C@@H](Nc3ncc(Cl)c(-c4c[nH]c5ccccc45)n3)C2)cc1 [THZ-531] | 

The next lines start with the compound.

Row | SMILES | Times more potent towards Cdk9 than Cdk10 (Cdk10/CycQ [3]) | Cross reactivity with Cdk10 (effect of inhibitor on Cdk10) (Cdk10/CycQ [3]) | also measured
5 | Cc1cc(O)c(-c2ccc([C@@H](C)CN(C)C)cc2)c2c1[nH]c(=O)c1sccc12 [OTS964] |  |  | IC50 (Cdk10/CycQ [1]): 5370 nM; IC50 (Cdk9): 138000 nM
6 | CC(C)(C)c1cnc(CSc2cnc(NC(=O)C3CCN(CC(=O)NCCOCCOCCOCCNc4cccc5c4C(=O)N(C4CCC(=O)NC4=O)C5=O)CC3)s2)o1 (centres unmarked) [THAL-SNS-032] |  |  | Degradation of Cdk10 (Cdk10 [4]): degrades Cdk10 only after a longer incubation period
7 | C=CC(=O)Nc1ccc(C(=O)Nc2[nH]nc3c2CN(C(=O)N[C@H](CN(C)C)c2ccccc2)C3(C)C)cc1 [YKL-5-124] |  | did not observe any considerable effect | 
8 | CCN1CCN(Cc2ccc(Nc3ncc(F)c(-c4cc(F)c5nc(C)n(C(C)C)c5c4)n3)nc2)CC1 [abemaciclib] |  | did not observe any considerable effect | 
9 | CCc1cnn2c(NCc3ccc[n+]([O-])c3)cc(N3CCCC[C@H]3CCO)nc12 [dinaciclib] | at least 5 times |  | IC50 (Cdk10/CycQ [1]): 298 nM
10 | CN1CC[C@H](c2c(O)cc(O)c3c(=O)cc(-c4ccccc4Cl)oc23)[C@H](O)C1 [flavopiridol] | at least 5 times |  | 
11 | CC(=O)c1c(C)c2cnc(Nc3ccc(N4CCNCC4)cn3)nc2n(C2CCCC2)c1=O [palbociclib] |  | did not observe any considerable effect | 
